Measured values as given in patent publication US20020054880A1, “Anti-inflammatory, tolerogenic and immunoinhibiting properties of carbohydrate binding-peptides” (priority 1992, published 2002).

Legend:
[1] = molecular target: T1, PT-biotin binding to fetuin (Bos taurus, UniProt P12763); assay: PT-biotin binding to fetuin, binding inhibition assay; set-up: species or system Bordetella pertussis; conditions: + enhancement, − inhibition; for Percent Changes in Binding Activity PT/fetuin: peptide mg/mL: S2PL 1.2, ACS2P1 1.0, S2(14-2.3) 1.0, S2P2 1.1, S2P3 0.51, S2P4 0.98, S2P6 0.85, S3P1 3.2, S3P2 3.1, S3P3 4.5, S3P4 3.3, S3P5 0.48, S3P9a 1.7, SPYGRC 4.4, S2(WGA) 1.0, WGA (62-73) 1.0
T1 construct: purchased Sigma Chemical Company (fetuin); Connaught Center for Biotechnology Research (PT)
T1 sequence (P12763 19-359): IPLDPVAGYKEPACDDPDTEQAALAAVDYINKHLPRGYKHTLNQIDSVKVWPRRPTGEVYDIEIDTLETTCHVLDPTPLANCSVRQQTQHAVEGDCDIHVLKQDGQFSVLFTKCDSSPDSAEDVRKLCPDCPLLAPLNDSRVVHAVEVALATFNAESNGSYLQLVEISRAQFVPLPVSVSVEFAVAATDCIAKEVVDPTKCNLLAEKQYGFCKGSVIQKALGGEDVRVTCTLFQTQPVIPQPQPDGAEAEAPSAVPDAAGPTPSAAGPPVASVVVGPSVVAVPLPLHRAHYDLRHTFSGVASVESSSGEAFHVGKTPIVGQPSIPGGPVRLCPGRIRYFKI
Experimental: (§1) Peptides ranging in concentration from 0.5 to 4.5 mg/ml in PBS (40 μl) were added to each well and PT-biotin (10 μl containing 10 ng in PBS) was then added to the microtiter wells. […] Horseradish peroxidase-conjugated avidin (100 μl, 1/3000 dilution in PBST to a concentration of 0.3 μg/ml) was then added to the wells, and the plates were incubated at ambient temperature for 1 hour. […] Color development was recorded at 405 nm using a Titertek Multiskan MC plate reader. […] Binding assays for each peptide were done in duplicate. Binding inhibition experiments utilizing SNA-, WGA-, and MAL-biotin were performed as described above using 10 ng of each biotinylated lectin in PBS.
(§2) Binding assays for each inhibitor concentration were done at least in duplicate, and the average value varied less than 15%.

[2] = molecular target: T2, MAL-biotin binding to fetuin (Bos taurus, UniProt P12763); assay: MAL-biotin binding to fetuin, binding inhibition assay; set-up: species or system Maackia amurensis; conditions: + enhancement, − inhibition; for Percent Changes in Binding Activity MAL/fetuin: peptide mg/mL: S2PL 1.2, ACS2P1 1.0, S2(14-2.3) 1.0, S2P2 1.1, S2P3 0.51, S2P4 0.98, S2P6 0.85, S3P1 3.2, S3P2 3.1, S3P3 4.5, S3P4 3.3, S3P5 0.48, S3P9a 1.7, SPYGRC 4.4, S2(WGA) 1.0, WGA (62-73) 1.0
T2 construct: purchased Sigma Chemical Company (fetuin); Boehringer Mannheim (MAL-biotin)
T2 sequence (P12763 19-359): T1 sequence (P12763 19-359)
Experimental: as §1, §2

[3] = molecular target: T3, SNA-biotin binding to fetuin (Bos taurus, UniProt P12763); assay: biochemical; conditions: for Percent Changes in Binding Activity SNA/fetuin: peptide mg/mL: S2PL 1.2, ACS2P1 1.0, S2(14-2.3) 1.0, S2P2 1.1, S2P3 0.51, S2P4 0.98, S2P6 0.85, S3P1 3.2, S3P2 3.1, S3P3 4.5, S3P4 3.3, S3P5 0.48, S3P9a 1.7, SPYGRC 4.4, S2(WGA) 1.0, WGA (62-73) 1.0
T3 sequence (P12763 19-359): T1 sequence (P12763 19-359)
Experimental: (§3) The solution was removed by aspiration and replaced with 100 μl of 1% BSA in PBS containing 0.05% Tween 20 (PBST). After incubation for 2-4 hours at room temperature, the microtiter wells were washed four times with 300 μl of PBST. Peptides ranging in concentration from 0.5 to 4.5 mg/ml in PBS (40 μl) were added to each well and PT-biotin (10 μl containing 10 ng in PBS) was then added to the microtiter wells. After incubating for 1 hour, the binding reaction was stopped by aspirating the solutions and the plate was washed with PBST (300 μl). Horseradish peroxidase-conjugated avidin (100 μl, 1/3000 dilution in PBST to a concentration of 0.3 μg/ml) was then added to the wells, and the plates were incubated at ambient temperature for 1 hour. After washing the wells as described above, the substrate solution [1 mM ABTS in 5 mM citrate buffer, pH 4.2, containing 0.1% hydrogen peroxide, v/v) was added and the plates were incubated for 30 minutes. Color development was recorded at 405 nm using a Titertek Multiskan MC plate reader. Maximum binding was determined in the absence of peptide, and background binding was measured in wells coated with BSA only. Binding assays for each peptide were done in duplicate. Binding inhibition experiments utilizing SNA-, WGA-, and MAL-biotin were performed as described above using 10 ng of each biotinylated lectin in PBS.

[4] = test system: pertussis toxin binding to Chinese Hamster ovary (CHO) cell; assay: CHO cell neutralization of pertussis toxin (cell clumping); type: cell-based; conditions: PT 2.4 ng/ml, peptide and PT 1 hour, triplicate
Experimental: Confluent monolayers of CHO cells were lifted from plastic tissue culture flasks with 0.25% trypsin and suspended at a concentration of 5×10^4 cells/ml in Ham's F12 media containing 10% fetal bovine serum (FBS). 100 μl of the cell suspension was added to 96 well tissue culture plates and were allowed to establish contact with the plastic for 24 to 48 hours. The expended media was then removed and filtered-sterilized peptide 5-fold dilutions ranging in concentration from 300 to 30 femptogram per ml (80 μl) in Ham' F12 media containing FBS were added to the CHO cells. […] The incubation mixtures were gently mixed and incubated at 37° C. for 1 hour in a CO2 incubator. The incubation mixtures were then removed and replaced with fresh media. The tissue culture plates were then incubated for 24 hours at 37° C., fixed with 100% methanol, and stained with Geimsa stain. Control experiments were done in the absence of peptide alone or in the absence of PT. All determinations were done in triplicate. […] The results reported in Table VIII show the maximum peptide concentration required to cause a 50% reduction in CHO cell clumping.

[5] = test system: Balb/c mice; assay: DTH inflammatory response, mouse footpad swelling assay; type: in vivo; conditions: 100 μg peptide into the tail vein 5 hours after challenge with 20 μg OVA; FIG. 2
Experimental: DTH inflammatory responses were measured using the mouse footpad swelling assay as described by Smith and Ziola^64. Briefly, groups of Balb/c mice (about 19-20 grams each) were immunized with 100 μg of the OVA antigen containing 20μg of the adjuvant (DDA—dimethyl-dioctadecylammonium bromide) which also induces a strong inflammatory DTH response. Seven days later, each group of mice was footpad-challenged with 20 μg of the OVA antigen (without adjuvant). The resulting inflammatory footpad swelling was measured with a Mitutoyo Engineering micrometer 24 hours after challenge.
To assess the effect of different peptides on the inflammatory DTH response, groups of mice received 100 μg of the following peptides- ACS2P1 (2275), SPYGRC (2283), and S3P9a. These peptides were injected as a solution into the tail vein, 5 hours after challenge. Control groups were left untreated or received 100 μL of phosphate-buffered saline (PBS).

[6] = test system: Balb/c mice; assay: Persistence of suppression of DTH response on OVA re-challenge at 2 weeks; type: in vivo; conditions: mice treated as in Example 11, re-challenged at 2 weeks; FIG. 3
Excerpt: Identical groups of mice treated with the peptides in Example 11 above, were re-challenged with OVA antigen 2 weeks after primary immunization.

[7] = molecular target: T4, ACS2P1-biotin binding to fetuin (Bordetella pertussis, UniProt P04978); conditions: saccharide 8 mM in PBS; 0.1 μg ACS2P1-biotin; fetuin 3 μg/ml; + enhancement, − inhibition
T4 construct: 2; ACS2P1-b; 9-23; made in house; host or cells: chemical synthesis

[8] = molecular target: T5, ACS2P1-biotin binding to fetuin (Bordetella pertussis, UniProt P04978, G45S); conditions: saccharide 8 mM; n=3
T5 construct: 2; ACS2P1-b; 9-23; made in house; host or cells: chemical synthesis

[9] = molecular target: SPYGRC-biotin binding to fetuin (Bordetella pertussis, UniProt P04978); assay: Inhibition of SPYGRC-biotin binding to fetuin by simple saccharides; conditions: saccharide 8 mM in PBS, 0.5 μg SPYGRC-biotin, fetuin 3 μg/ml, + enhancement
Experimental: Binding inhibition assays were done using sialic acid, sialyllactose, lactose, or N-acetyl-glucosamine at a concentration of 8 mM in PBS. […] The pH of free sialic acid was carefully monitored and adjusted to physiological pH values with dilute sodium hydroxide.

[10] = molecular target: T6, WGA-biotin binding to fetuin (Bos taurus, UniProt P12763); assay: biochemical; conditions: + enhancement, − inhibition
T6 sequence (P12763 19-359): T1 sequence (P12763 19-359)
Experimental: as §3

[11] = molecular target: T7, PT-biotin binding to asialofetuin (Bos taurus, UniProt P12763); assay: PT-biotin binding to asialofetuin, binding inhibition assay; set-up: species or system Bordetella pertussis; conditions: peptide mg/mL: S2PL 1.2, ACS2P1 1.0, S2P2 1.1, S2P3 0.51, S2P4 0.98, S2P6 0.85, S3P1 3.2, S3P2 3.1, S3P3 4.5, S3P4 3.3, S3P5 0.48, SPYGRC 4.4; + enhancement, − inhibition
T7 construct: made in house
T7 sequence (P12763 19-359): T1 sequence (P12763 19-359)
Experimental: as §1, §2

[12] = molecular target: T8, ACS2P1-biotin binding to fetuin (Bos taurus, UniProt P12763); assay: biochemical; conditions: peptide μM: ACS2P1 4.1, S2P2 42.5, SPYGRC 5520, S2P3 22.4, S2P4 6.0, S2P6 319, S3P1 1142, S3P2 934, S3P3 16.1, S3P4 6.4, S3P5 22.5; ACS2P1-biotin 0.1 μg; − inhibition, + enhancement
T8 construct: purchased Sigma Chemical Company
T8 sequence (P12763 19-359): T1 sequence (P12763 19-359)

[13] = molecular target: T9, ACS2P1-biotin binding to asialofetuin (Bos taurus, UniProt P12763); assay: Screening of S2 and S3 peptides for inhibition of ACS2P1-biotin binding to asialofetuin; conditions: peptide μM: ACS2P1 4.1, S2P2 42.5, SPYGRC 5520, S2P3 22.4, S2P4 6.0, S2P6 319, S3P1 1142, S3P2 934, S3P3 16.1, S3P4 6.4, S3P5 22.5; ACS2P1-biotin 0.1 μg; − inhibition, + enhancement
T9 construct: made in house
T9 sequence (P12763 19-359): T1 sequence (P12763 19-359)

Row | Molecule | Percent Changes in Binding Activity PT/fetuin [1] | Percent Changes in Binding Activity MAL/fetuin [2] | IC50 [3] [µM] | Percent Changes in Binding Activity SNA/fetuin ([3]; + enhancement, − inhibition) [%] | Maximal Inhibitory Concentration for Greater than 50% Inhibition [4] | effect on DTH inflammatory response (footpad swelling 24 hours after challenge), in words [5] | DTH response (footpad swelling) on later re-challenge with OVA antigen, in words [6] | Percent Changes in Binding Activity ACS2P1-biotin (n = 3) [7] | inhibition of the binding of biotinylated peptide (ACS2P1-biotin) to fetuin [8] | Percent Changes in Binding Activity SPYGRC-biotin (n = 3) [9] | % Changes in Binding Activity, PT-b to fetuin ([1]; SPYGRC peptide 4.4 mg/ml) | % Changes in Binding Activity, MAL-5 to fetuin ([2]; SPYGRC peptide 4.4 mg/ml) [%] | % Changes in Binding Activity, SNA-b to fetuin ([3]; SPYGRC peptide 4.4 mg/ml, + enhancement, − inhibition) [%] | % Changes in Binding Activity, WGA-b to fetuin ([10]; SPYGRC peptide 4.4 mg/ml) | Percent Changes in Binding Activity WGA/fetuin ([10]; peptide mg/mL: S2PL 1.2, ACS2P1 1.0, S2(14-2.3) 1.0, S2P2 1.1, S2P3 0.51, S2P4 0.98, S2P6 0.85, S3P1 3.2, S3P2 3.1, S3P3 4.5, S3P4 3.3, S3P5 0.48, SPYGRC 4.4, S2(WGA) 1.0, WGA (62-73) 1.0) | Percent Changes in Binding Activity PT/asialo-fetuin [11] | Percent Change in Binding Activity Fetuin [12] [%] | Percent Change in Binding Activity Asialofetuin [13] [%]
1 | CC(C)C[C@H](NC(=O)[C@H](CC(C)C)NC(=O)[C@@H](N)CCCNC(=N)N)C(=O)N[C@@H](C)C(=O)N[C@@H](CO)C(=O)N[C@H](C(=O)N[C@@H](CC(N)=O)C(=O)N[C@@H](CO)C(=O)N[C@@H](CCCNC(=N)N)C(=O)N[C@@H](CC(C)C)C(=O)N[C@@H](CS)C(=O)N[C@@H](C)C(=O)N[C@H](C(=O)N[C@@H](Cc1ccccc1)C(=O)N[C@H](C(=O)N[C@@H](CCCNC(=N)N)C(=O)N[C@@H](CC(=O)O)C(=O)NCC(=O)O)C(C)C)C(C)C)[C@@H](C)O [Peptide S3P9a] | +328 ± 10% | +18 ± 6% | 2740 ± 860 | −41 ± 3 | NI (Not inhibitory at a peptide concentration of 300 ng/ml.) | effective in reducing a DTH response in mice | reduced immune response | – | – | – | – | – | – | – | – | – | – | –
2 | OC[C@H]1O[C@@H](O[C@H]2[C@H](O)[C@@H](O)C(O)O[C@@H]2CO)[C@H](O)[C@@H](O)[C@H]1O (stereo partly drawn) [Lactose] | – | – | – | – | – | – | – | +74 ± 7% | failed to reduce the binding of ACS2P1-biotin | +20 ± 11% | – | – | – | – | – | – | – | –
3 | CC(=O)N[C@H]1C(O)O[C@H](CO)[C@@H](O)[C@@H]1O (stereo partly drawn) [N-Acetylglucosamine] | – | – | – | – | – | – | – | −10 ± 2% | 10±2% | +6 ± 5% | – | – | – | – | – | – | – | –
4 | SPYGRC-CO—NH2 | +34 ± 2% | −16 ± 0% | – | −2 ± 2 | 480 pg/mL | effective in reducing a DTH response in mice | reduced immune response | – | – | – | +34 ± 2% | −16 ± 0 | −2 ± 1 | +7 + 3% | +7 ± 3% | +7 ± 9% | −24 ± 2 | −54 ± 3
